In one experiment the target is Phosphodiesterase 3B (Bos taurus, UniProt E1BN64). Description: Inhibition of bovine heart phosphodiesterase 3.
In the next experiment the target is Phosphodiesterase 4 (Homo sapiens, UniProt P27815+Q08499+Q07343+Q08493). Description: Inhibition of phosphodiesterase 4. The class given is protein assay.
The target in experiment [1] is cGMP-specific 3',5'-cyclic phosphodiesterase (Bos taurus, UniProt Q28156). Description: Inhibition of bovine lung phosphodiesterase 5.
For experiment [2], the target named is cGMP-dependent 3',5'-cyclic phosphodiesterase (Homo sapiens, UniProt O00408). Description: Inhibition of phosphodiesterase 2.
Chain of cGMP-dependent 3',5'-cyclic phosphodiesterase (O00408 whole entry): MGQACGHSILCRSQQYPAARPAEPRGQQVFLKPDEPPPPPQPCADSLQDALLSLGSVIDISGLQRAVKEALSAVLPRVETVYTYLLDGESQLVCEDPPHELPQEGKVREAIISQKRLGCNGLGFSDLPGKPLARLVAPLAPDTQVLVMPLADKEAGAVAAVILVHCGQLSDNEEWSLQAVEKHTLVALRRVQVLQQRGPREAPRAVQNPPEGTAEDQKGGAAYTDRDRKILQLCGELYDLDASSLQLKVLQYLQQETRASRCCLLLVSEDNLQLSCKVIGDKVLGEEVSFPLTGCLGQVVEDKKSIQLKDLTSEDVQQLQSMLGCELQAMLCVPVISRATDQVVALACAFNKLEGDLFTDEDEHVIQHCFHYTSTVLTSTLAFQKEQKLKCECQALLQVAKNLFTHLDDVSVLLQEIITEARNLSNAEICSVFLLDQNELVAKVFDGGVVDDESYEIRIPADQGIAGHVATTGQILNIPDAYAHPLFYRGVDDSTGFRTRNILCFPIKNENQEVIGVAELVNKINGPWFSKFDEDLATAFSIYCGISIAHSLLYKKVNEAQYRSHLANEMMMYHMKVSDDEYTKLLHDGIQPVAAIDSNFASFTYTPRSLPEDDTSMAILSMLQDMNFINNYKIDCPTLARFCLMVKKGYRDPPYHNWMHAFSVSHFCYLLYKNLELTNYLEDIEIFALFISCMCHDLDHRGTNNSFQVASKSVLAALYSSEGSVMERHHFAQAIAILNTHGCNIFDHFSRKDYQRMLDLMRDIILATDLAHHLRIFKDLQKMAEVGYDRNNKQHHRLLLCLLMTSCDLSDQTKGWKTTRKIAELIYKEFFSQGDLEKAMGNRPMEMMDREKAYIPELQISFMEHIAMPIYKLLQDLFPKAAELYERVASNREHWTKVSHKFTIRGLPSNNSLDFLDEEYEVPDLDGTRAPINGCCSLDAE
The target in another experiment is Phosphodiesterase 1 (Bos taurus, UniProt Q01061+P14100). Description: Inhibition of bovine aorta phosphodiesterase 1. In kind it is protein assay.

Molecules are shown by their SMILES.

Chain of Phosphodiesterase 3B (E1BN64 whole entry): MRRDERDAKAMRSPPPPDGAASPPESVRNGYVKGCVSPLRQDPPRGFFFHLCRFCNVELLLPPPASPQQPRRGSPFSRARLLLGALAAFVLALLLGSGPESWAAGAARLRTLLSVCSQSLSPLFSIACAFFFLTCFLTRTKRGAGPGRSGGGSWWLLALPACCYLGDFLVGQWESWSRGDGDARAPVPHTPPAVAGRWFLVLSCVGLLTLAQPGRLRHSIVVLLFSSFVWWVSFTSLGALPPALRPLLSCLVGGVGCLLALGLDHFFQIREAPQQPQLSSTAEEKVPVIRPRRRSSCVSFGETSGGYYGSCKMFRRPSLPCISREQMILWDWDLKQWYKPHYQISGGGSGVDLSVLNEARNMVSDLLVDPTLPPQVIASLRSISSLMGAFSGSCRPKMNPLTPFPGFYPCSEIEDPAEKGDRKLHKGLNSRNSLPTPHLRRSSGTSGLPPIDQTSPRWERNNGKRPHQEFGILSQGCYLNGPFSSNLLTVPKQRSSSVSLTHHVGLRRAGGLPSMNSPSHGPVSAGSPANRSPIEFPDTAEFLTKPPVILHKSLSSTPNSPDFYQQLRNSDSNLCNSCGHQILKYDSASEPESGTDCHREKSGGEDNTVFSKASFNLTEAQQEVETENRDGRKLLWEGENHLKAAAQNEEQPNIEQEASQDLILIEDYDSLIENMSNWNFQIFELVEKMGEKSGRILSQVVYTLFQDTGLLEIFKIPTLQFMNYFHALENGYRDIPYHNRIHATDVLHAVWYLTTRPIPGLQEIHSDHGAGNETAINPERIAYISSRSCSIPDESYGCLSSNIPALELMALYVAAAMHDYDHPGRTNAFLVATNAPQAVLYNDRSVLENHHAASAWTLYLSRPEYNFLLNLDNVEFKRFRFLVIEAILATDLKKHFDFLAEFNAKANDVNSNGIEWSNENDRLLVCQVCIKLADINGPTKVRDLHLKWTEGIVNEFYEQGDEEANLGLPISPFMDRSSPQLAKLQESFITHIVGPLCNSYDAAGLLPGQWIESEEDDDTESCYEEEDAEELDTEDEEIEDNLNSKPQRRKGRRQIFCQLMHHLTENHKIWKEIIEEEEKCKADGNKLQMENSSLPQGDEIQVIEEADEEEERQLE

As for `CN1C(=O)c2c(nc(-c3ccc(C4CCCCC4)cc3)n2Cc2ccccc2)N2CC3(CCCC3)N=C12`, the IC50 against Phosphodiesterase 3B is greater than 100000 nM; on Phosphodiesterase 4, 2200 nM; in experiment [1] it was 190 nM; in experiment [2], 17000 nM; on Phosphodiesterase 1, 110 nM.

As usually defined, the IC50 is the concentration that gives 50% inhibition. Read a low IC50 as higher potency.

Values taken from ChEMBL document CHEMBL1130438, “The Gif system as a tool in medicinal chemistry: The oxidation of Sch 57726 under GoAggIII conditions” (Bioorg Med Chem Lett, 1997).
